# From PubChem BioAssay (NCI)
#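 Dose response: 5 concentrations. Exposure: 48 h. Format: 96-well plates. Endpoint: linear interpolation; highest concentration if not reached. The concentration for 50% growth inhibition is given as GI50. TGI: total growth inhibition.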
# Legend:
# Test in all cases: NCI-60 cell line screen, 48 h
# [1] = test system: MOLT-4 leukemia
# [2] = test system: LOX IMVI melanoma
# [3] = test system: SF-295 CNS
# [4] = test system: NCI-H226 lung
# [5] = test system: SR leukemia
# [6] = test system: K-562 leukemia
# [7] = test system: SNB-19 CNS
# [8] = test system: SF-268 CNS
# [9] = test system: NCI-H23 lung
# [10] = test system: UACC-257 melanoma
# [11] = test system: MCF7 breast
# [12] = test system: NCI/ADR-RES ovarian
# [13] = test system: NCI-H522 lung
# [14] = test system: TK-10 renal
# [15] = test system: HT29 colon
# [16] = test system: CCRF-CEM leukemia
# [17] = test system: RPMI-8226 leukemia
# [18] = test system: COLO 205 colon
# [19] = test system: SK-MEL-2 melanoma
# [20] = test system: SW-620 colon
# [21] = test system: CAKI-1 renal
# [22] = test system: M14 melanoma
# [23] = test system: T-47D breast
# [24] = test system: NCI-H460 lung
# [25] = test system: KM12 colon
# [26] = test system: HS 578T breast
# [27] = test system: HOP-92 NSCLC
# [28] = test system: HL-60(TB) leukemia
# [29] = test system: SK-MEL-5 melanoma
# [30] = test system: PC-3 prostate
# [31] = test system: MDA-MB-435
# [32] = test system: SF-539 CNS
# [33] = test system: SN12C renal
# [34] = test system: A549 NSCLC
# [35] = test system: SK-MEL-28 melanoma
# [36] = test system: EKVX NSCLC
# [37] = test system: SNB-75 CNS
# [38] = test system: HCT-15 colon
# [39] = test system: SK-OV-3 ovarian
# [40] = test system: IGROV1 ovarian
# [41] = test system: HCC-2998 colon
# [42] = test system: BT-549 breast
# [43] = test system: RXF 393 renal
# [44] = test system: UACC-62 melanoma
# [45] = test system: OVCAR-5 ovarian
# [46] = test system: U251 CNS
# [47] = test system: 786-0 renal
# [48] = test system: OVCAR-8 ovarian
# [49] = test system: OVCAR-3 ovarian
# [50] = test system: HOP-62 NSCLC
# [51] = test system: DU-145 prostate
# [52] = test system: A498 renal
# [53] = test system: UO-31 renal
# [54] = test system: MDA-MB-231 breast
# [55] = test system: HCT-116 colon
# [56] = test system: ACHN renal
# [57] = test system: MALME-3M melanoma
# [58] = test system: OVCAR-4 ovarian
smiles,measurement,setting,value
O=c1oc2cc(O)ccc2c(O)c1C(c1ccc2ccccc2c1)c1c(O)c2ccc(O)cc2oc1=O,TGI,[1],> 100 µM
same,TGI,[2],> 100 µM
same,TGI,[3],> 100 µM
same,TGI,[4],> 100 µM
same,TGI,[5],67.1 µM
same,TGI,[6],> 100 µM
same,TGI,[7],49.3 µM
same,TGI,[8],33.5 µM
same,TGI,[9],> 100 µM
same,TGI,[10],> 100 µM
same,TGI,[11],> 100 µM
same,TGI,[12],> 100 µM
same,TGI,[13],> 100 µM
same,TGI,[14],> 100 µM
same,TGI,[15],> 100 µM
same,TGI,[16],> 100 µM
same,TGI,[17],85.2 µM
same,TGI,[18],> 100 µM
same,TGI,[19],> 100 µM
same,TGI,[20],> 100 µM
same,TGI,[21],> 100 µM
same,TGI,[22],> 100 µM
same,TGI,[23],> 100 µM
same,TGI,[24],> 100 µM
same,TGI,[25],> 100 µM
same,TGI,[26],59.7 µM
same,TGI,[27],> 100 µM
same,TGI,[28],69.2 µM
same,TGI,[29],> 100 µM
same,TGI,[30],> 100 µM
same,TGI,[31],> 100 µM
same,TGI,[32],> 100 µM
same,TGI,[33],> 100 µM
same,TGI,[34],> 100 µM
same,TGI,[35],> 100 µM
same,TGI,[36],> 100 µM
same,TGI,[37],37.7 µM
same,TGI,[38],> 100 µM
same,TGI,[39],> 100 µM
same,TGI,[40],> 100 µM
same,TGI,[41],> 100 µM
same,TGI,[42],> 100 µM
same,TGI,[43],> 100 µM
same,TGI,[44],> 100 µM
same,TGI,[45],> 100 µM
same,TGI,[46],> 100 µM
same,TGI,[47],> 100 µM
same,TGI,[48],> 100 µM
same,TGI,[49],> 100 µM
same,TGI,[50],> 100 µM
same,TGI,[51],> 100 µM
same,TGI,[52],> 100 µM
same,TGI,[53],31.7 µM
same,TGI,[54],> 100 µM
same,TGI,[55],> 100 µM
O=C1CC2(CCN(CC3COc4ccccc4O3)CC2)C(=O)N1N1CCCCCC1 (stereo unspecified),TGI,[1],63.6 µM
same,TGI,[2],> 100 µM
same,TGI,[3],> 100 µM
same,TGI,[4],> 100 µM
same,TGI,[5],> 100 µM
same,TGI,[6],> 100 µM
same,TGI,[7],> 100 µM
same,TGI,[8],> 100 µM
same,TGI,[9],> 100 µM
same,TGI,[10],> 100 µM
same,TGI,[11],> 100 µM
same,TGI,[12],> 100 µM
same,TGI,[13],> 100 µM
same,TGI,[14],> 100 µM
same,TGI,[15],47.6 µM
same,TGI,[16],> 100 µM
same,TGI,[56],> 100 µM
same,TGI,[17],> 100 µM
same,TGI,[18],> 100 µM
same,TGI,[19],> 100 µM
same,TGI,[57],> 100 µM
same,TGI,[21],> 100 µM
same,TGI,[22],> 100 µM
same,TGI,[23],> 100 µM
same,TGI,[26],> 100 µM
same,TGI,[27],> 100 µM
same,TGI,[28],> 100 µM
same,TGI,[29],> 100 µM
same,TGI,[30],> 100 µM
same,TGI,[31],> 100 µM
same,TGI,[32],> 100 µM
same,TGI,[33],> 100 µM
same,TGI,[34],> 100 µM
same,TGI,[35],> 100 µM
same,TGI,[36],> 100 µM
same,TGI,[37],> 100 µM
same,TGI,[38],> 100 µM
same,TGI,[39],> 100 µM
same,TGI,[40],> 100 µM
same,TGI,[42],> 100 µM
same,TGI,[43],> 100 µM
same,TGI,[44],> 100 µM
same,TGI,[45],> 100 µM
same,TGI,[46],> 100 µM
same,TGI,[47],> 100 µM
same,TGI,[48],> 100 µM
same,TGI,[58],> 100 µM
same,TGI,[49],> 100 µM
same,TGI,[50],> 100 µM
same,TGI,[51],> 100 µM
same,TGI,[52],> 100 µM
same,TGI,[53],> 100 µM
same,TGI,[54],> 100 µM
same,TGI,[55],> 100 µM
Cc1c(C)n(CC(O)CNC2CCCCC2C)c2ccccc12 (stereo unspecified),GI50,[1],15.3 µM
same,TGI,[1],41.2 µM
same,GI50,[2],14.8 µM
same,TGI,[2],28 µM
same,GI50,[3],14.1 µM
same,TGI,[3],28.2 µM
same,GI50,[4],17.2 µM
same,TGI,[4],35.9 µM
same,GI50,[5],12.4 µM
same,TGI,[5],34.1 µM
same,GI50,[6],3.93 µM
same,TGI,[6],20.1 µM
same,GI50,[7],15.5 µM
same,TGI,[7],30.9 µM
same,GI50,[8],15.4 µM
same,TGI,[8],30.2 µM
same,GI50,[9],16.8 µM
same,TGI,[9],32.8 µM
same,GI50,[10],16.2 µM
same,TGI,[10],31 µM
same,GI50,[11],13.2 µM
same,TGI,[11],28.3 µM
same,GI50,[12],15.5 µM
same,TGI,[12],29.8 µM
same,GI50,[56],13.3 µM
same,TGI,[56],26 µM
same,GI50,[17],9.48 µM
same,TGI,[17],28.6 µM
same,GI50,[18],2.21 µM
same,TGI,[18],4.82 µM
same,GI50,[20],17.9 µM
same,TGI,[20],35 µM
same,GI50,[57],14.2 µM
same,TGI,[57],30.1 µM
same,GI50,[21],12.4 µM
same,TGI,[21],24.9 µM
same,GI50,[23],12.8 µM
same,TGI,[23],29.8 µM
same,GI50,[24],15.7 µM
same,TGI,[24],31 µM
same,GI50,[25],15.3 µM
same,TGI,[25],28.9 µM
same,GI50,[26],16.3 µM
same,TGI,[26],43 µM
same,GI50,[27],4.76 µM
same,TGI,[27],17.8 µM
same,GI50,[28],19.2 µM
same,TGI,[28],42.7 µM
same,GI50,[29],12.6 µM
same,TGI,[29],25.4 µM
same,GI50,[30],13.4 µM
same,TGI,[30],26.2 µM
same,GI50,[31],12.8 µM
same,TGI,[31],25.4 µM
same,GI50,[32],15.8 µM
same,TGI,[32],30.4 µM
same,GI50,[33],16 µM
same,TGI,[33],30.5 µM
same,GI50,[34],16.9 µM
same,TGI,[34],32.8 µM
same,GI50,[35],14 µM
same,TGI,[35],27.4 µM
same,GI50,[37],10.1 µM
same,TGI,[37],21.7 µM
same,GI50,[38],12.6 µM
same,TGI,[38],26.5 µM
same,GI50,[39],18.2 µM
same,TGI,[39],32.9 µM
same,GI50,[40],16 µM
same,TGI,[40],31.9 µM
same,GI50,[41],3.03 µM
same,TGI,[41],10.5 µM
same,GI50,[42],16 µM
same,TGI,[42],30.1 µM
same,GI50,[43],10.5 µM
same,TGI,[43],23 µM
same,GI50,[44],14.8 µM
same,TGI,[44],29 µM
same,GI50,[45],12.9 µM
same,TGI,[45],25.7 µM
same,GI50,[46],13.8 µM
same,TGI,[46],26.7 µM
same,GI50,[47],12.5 µM
same,TGI,[47],25.6 µM
same,GI50,[48],16.2 µM
same,TGI,[48],31.2 µM
same,GI50,[58],12 µM
same,TGI,[58],24.4 µM
same,GI50,[49],16.4 µM
same,TGI,[49],29.9 µM
same,GI50,[50],16.6 µM
same,TGI,[50],32 µM
same,GI50,[51],17.8 µM
same,TGI,[51],31.6 µM
same,GI50,[52],4.99 µM
same,TGI,[52],19.6 µM
same,GI50,[53],10.8 µM
same,TGI,[53],23.4 µM
same,GI50,[54],6.44 µM
same,TGI,[54],20.5 µM
same,GI50,[55],12 µM
same,TGI,[55],24.4 µM
